Assay results: patent US20040191843A1, “Cell-killing molecules and methods of use thereof” (Palo Alto Institute of Molecular Medicine, priority 2003, published 2004)

System: U9-TR
Assay: DNA fragmentation in whole cells (release of 3H-labeled DNA fragments, 4 h)
Format: cell-based, human
Experimental: DNA fragmentation in whole cells or normal nuclei isolated from U937 or MCF-7 cells was assayed by release of (3H)thymidine-labeled DNA fragments as described in detail previously (Wright et al. (1994) J. Exp. Med. 180, 2113-2123). DNA fragmentation induced by rADF treatment of isolated nuclei for four h was analyzed by agarose electrophoresis as described in detail previously (Wright et al. (1994) supra). In four h assays using isolated nuclei, the buffer was supplemented with an ATP regenerating system (2 mM ATP, 10 mM phosphocreatine, and 50 μg/ml creatine kinase).
Another mechanism whereby cancer cells may resist apoptosis is through overexpression of heat shock (HS) proteins which have been found at high levels in most tumor cell biopsies (Jaattela, et al., 1999, Exp Cell Res 248:30-43). […] We have studied the mechanisms of apoptosis resistance using several variants derived from the U937 cell line. Variants generated by prolonged growth in the presence of TNF (U9-TR) or by nutritional depletion of intracellular NAD content (U9-NAD-) have been described in the literature previously (Wright, et al., 1992, Cancer Immunol Immunother 34:399-406; Wright, et al., 1996b, J. Exp. Med. 183: 463-477). Both of these variants were resistant to apoptosis induced by diverse agents, such as chemotherapeutic drugs, UV light, and TNF.

COc1cc([C@@H]2c3cc4c(cc3[C@@H](O[C@@H]3O[C@@H]5CO[C@@H](C)O[C@H]5[C@H](O)[C@H]3O)[C@H]3COC(=O)[C@H]23)OCO4)cc(OC)c1O [Etoposide, etoposide] was tested, and the “fold increase of IC50 values in resistant variants” value was > 41 fold.
